Results: ChEMBL document CHEMBL1143860, “Synthesis and biological activity of phosphatidylinositol-3,4,5-trisphosphorothioate” (Bioorg Med Chem Lett, 2008)
Active and inactive are the calls of the source. The rule behind the calls is not given here.

Test system: A6
Assay: Agonist activity at […] expressed in A6 cells assessed as increase in insulin-stimulated sodium transport at 50 uM
Format: functional, cell-based

`CCCCCCCCCCCCCCCC(=O)OC[C@H](COP(=O)(O)O[C@H]1[C@H](O)[C@@H](OP(O)(O)=S)[C@H](OP(O)(O)=S)[C@@H](OP(O)(O)=S)[C@H]1O)OC(=O)CCCCCCCCCCCCCCC` was tested, and the Activity was “Active”.
